{"source": "patent US9956199B2", "about": "“Chromane-like cyclic prenylflavonoids for the medical intervention in neurological disorders” (priority 2011, dated 2018)", "key": {"[1]": {"test_system": "chicken dorsal root ganglion neurons", "experiment": "neurite outgrowth in primary chicken dorsal root ganglion neurons", "type": "cell-based", "details": "E8 and E15 DRG neurons, 12 to 24 hours; compound 1a 10 μM, NGF 20 ng/ml; GAP-43 staining", "procedure": "Dorsal root ganglion neurons comprise of an axon with two branches and are a good model for neuronal differentiation. Embryonic day 8 and 15 chicken dorsal root ganglions were examined for immunochemical staining with GAP43 after incubation with NGF 20 ng/ml and compound 1a (ENDF1) 10 μM to analyze whether compound 1a alone or in combination with the nerve growth factor enhances neurite outgrowth and branching.\nEmbryonic day (E) 8 and E15 chicken Dorsal Root Ganglions (DRGs) were prepared as described in: Aigner, 1993; Aigner, 1995. Briefly, foetuses were taken out of the egg, decapitated and the DRGs were targeted from the ventral side. The 10 lumbar region DRGs per foetus were dissected, and a total of 100 DRGs were collected in 10 ml DPBS in a 15 ml Falcon tube. DRGs were centrifuged 120×g for 3 min and then enzymatically treated with 1 ml trypsin 0.5 mg/ml+EDTA 0.22 mg/ml (PAA, Pasching, Austria) for 15 min. Then, 9 ml of DMEM 10% FCS were added to inactivate the trypsin and DRGs were centrifuged 120×g for 5 min. DRGs were resuspended and washed with 5 ml of DMEM 10% FCS, pipetted up and down to dissociate them, centrifuged, resuspended in 5 ml of DMEM 10% FCS and transferred into a 60 mm diameter cell culture dish. […]"}, "MEF cells": {"test_system": "MEF cells", "experiment": "neurite length and branching in MEF cultures", "type": "cell-based, mouse", "details": "10 μM and 100 μM, 7 days", "procedure": "Mouse embryonic day 16 forebrain cells were prepared and treated as described in Example 17.\nThe morphology of MEF cells after a 7 day treatment with retinoic acid/valproic acid or with compound 1a (ENDF1) is illustrated in FIG. 4. Cells were fixed and stained with DCX and Map2ab antibodies as described in Example 18. Three independent experiments were performed and evaluated. Data acquisition was done by using the software Volocity 5.3.1 for measurement and photographical documentation. The following parameters were analyzed: polarity, process, number of branches, number and length of sprouts, neurite-length and growth cone morphology.\nFor quantitative analysis of neurite length, neurons with long neurites were taken into consideration. […] For quantitative analysis of neurite branching, the branch density (number of branches per 100 μm of neurite length) was counted. For analysis, the DCX staining with DMEM-KO medium was used, since DCX, in contrast to Map2ab, is localized throughout the neurites."}}, "note": "“Also recorded” adds a separate entry of the source.", "data": [{"smiles": "COc1cc2c(c(O)c1C(=O)/C=C/c1ccc(O)cc1)C=CC(C)(C)O2", "note": "[Compound 1a, (E)-1-(5-hydroxy-7-methoxy-2,2-dimethyl-2H-chromen-6-yl)-3-(4-hydroxyphenyl)prop-2-en-1-one]", "values": [{"measurement": "neurite extension", "setting": "[1]", "result": "strongly promote neurite extension; also recorded: promotes neurite extension to a similar degree as NGF; also recorded: almost in the range of NGF"}, {"measurement": "neurite branching/sprouting (branches per 100 μm of neurite length)", "setting": "MEF cells; DMEM-KO, FIG. 4J", "result": "high density of branches/sprouts; also recorded: strongly increases neurite length and neurite branching; also recorded: dramatic increase in branching/sprouting"}, {"measurement": "neurite length (DCX positive neurite profiles)", "setting": "MEF cells; compared to control and RA+VPA, FIG. 4I", "result": "significant increase in neurite length; also recorded: strongly increases neurite length and neurite branching; also recorded: much longer neurites"}]}]}
